Earlier results, collected in patent publication US20190298740A1, “METHODS AND COMPOSITIONS FOR TREATING HALLUCINATIONS AND CONDITIONS RELATED TO THE SAME” (Enterin, Inc., priority 2018, published 2019).

Molecular target: αS (Homo sapiens, UniProt P37840)
Conditions: in vitro; cited from earlier work

## CC(C)[C@@H](CC[C@@H](C)[C@H]1CC[C@H]2[C@@H]3[C@H](O)C[C@H]4C[C@@H](NCCCNCCCCN)CC[C@]4(C)[C@H]3CC[C@]12C)OS(=O)(=O)O (single isomer, unassigned) [squalamine (ENT-01)]
  Formation of aggregates of αS: inhibits the formation of αS aggregates
